What was measured:
Format in all cases: cell-based
[1] = test system: THP-1 (a human monocytic leukemia cell line); test: Cell proliferation assay (WST-8), THP-1; settings: for IC50: DMSO less than 1%
Protocol: (§1) We used THP-1 (a human monocytic leukemia cell line), L929 (a mouse fibroblast cell line), RAW264.7 (a mouse macrophage cell line), and mouse bone marrow-derived macrophages cultured in a flask or plate at 37°C, under a humidified atmosphere of 5% CO2 in air. THP-1 and L929 were obtained from Japan Health Science Foundation. RAW264.7 was purchased from DS Pharma Biomedical Co., Ltd. These cells were cultured in RPMI1640 + 10% FCS consisting of RPMI1640 [+] L-glutamine (Gibco) supplemented with antibiotics (penicillin and streptomycin; Gibco) and 10% fetal calf serum (FCS; Biowest). In cell proliferation assays, they were cultured in flat-bottomed 96-well plates (Corning) in 100 μl/well at a concentration of 1 x 10^5/ml with or without test samples. In the case of mouse peritoneal cells, we employed 1 x 10^6/ml as a cell concentration. After finishing the culture, we added 10 μl of a coloring reagent, WST-8 (Kishida Chemical Co.), which converts to water-soluble colored formazan by the action of a mitochondrial enzyme. Cells were additionally incubated with WST-8 for 3 h and the coloring reaction was stopped by adding 10 μl of 0.1% sodium dodecyl sulfate (SDS) solution. The absorbance of each well was then measured at 450 nm with a Multiskan Ascent plate reader (Labsystems). In principle, we performed cell proliferation assays in duplicate. Half-maximal (50%) inhibitory concentration (IC50) of each test sample was calculated according to the reported formula [15].
(§2) We examined the inhibitory activities of food constituents in cell proliferation assays. Test compounds used in the assays were as follows: curcumin (Wako or Sigma-Aldrich), zerumbone (Wako), genistein (Sigma-Aldrich), chalcone (Wako), corosolic acid (Wako), carnosol (Wako), ursolic acid (Wako), epigallocatechin (Sigma-Aldrich), isoflavone (Wako), apigenin (Wako), chrysin (Wako), flavanone (Wako), resveratrol (Wako), flavone (Wako), quercetin (Wako), daidzein (Wako), and clodronate (Sigma-Aldrich). These compounds were firstly dissolved with dimethyl sulfoxide (DMSO; Wako) and then appropriately diluted with RPMI1640 + 10% FCS to apply the assays. The final concentration of DMSO was adjusted not to exceed 1% at most in cell cultures.

[2] = test system: mouse bone marrow-derived macrophages; test: Cell proliferation assay (WST-8), mouse bone marrow-derived macrophages; settings: for IC50: means ± range (n = 2) or standard deviation (n > 2), DMSO less than 1%
Protocol: as §1, §2

[3] = test system: L929 (a mouse fibroblast cell line); test: Cell proliferation assay (WST-8), L929; settings: for IC50: means ± range (n = 2) or standard deviation (n > 2), DMSO less than 1%
Protocol: as §1, §2

[4] = test system: RAW264.7 (a mouse macrophage cell line); test: Cell proliferation assay (WST-8), RAW264.7; settings: cultured for 3 days
Protocol: as §1, with “In the case of mouse peritoneal cells, we employed 1 x 10^6/ml as a cell concentration. After finishing the culture, we added 10 μl of a coloring reagent, WST-8 (Kishida Chemical Co.), which converts to water-soluble colored formazan by the action of a mitochondrial enzyme. Cells were additionally incubated with WST-8 for 3 h and the coloring reaction was stopped by adding 10 μl of 0.1% sodium dodecyl sulfate (SDS) solution.” left out, “In principle, we performed cell proliferation assays in duplicate.” left out
After culturing, they were incubated with WST-8 for 3 h to assess viable cells in the culture. Resultant coloring reaction by WST-8 was measured with a plate-reader at the absorbance of 450 nm. In the vertical axis, the absorbance of only the medium was defined as 0%. Symbols in the Figure represent the percentage of absorbance with curucmin or liposomes to that without the test samples. […]

[5] = Homo sapiens, THP-1, means ± range (n = 2) or standard deviation (n > 2)
[6] = means ± range (n = 2) or standard deviation (n > 2)

`O=c1cc(-c2ccc(O)cc2)oc2cc(O)cc(O)c12` [Apigenin, apigenin] showed an IC50 [1, 5] of 37.9 ± 3.9 µM, an IC50 ([2]; Mus musculus, Macrophage) of 70 ± 19.8 µM and an IC50 ([3]; Mus musculus, L929) of 46.4 ± 3.3 µM.

In the case of `CC(C)c1cc2c(c(O)c1O)[C@@]13CCCC(C)(C)[C@@H]1C[C@@H]2OC3=O` [Carnosol, carnosol], the IC50 [1, 5] is reported as < 30 µM, the IC50 [1, 6] is reported as 20.5 ± 2.7 µM and the IC50 ([2]; Mus musculus, Macrophage) is reported as 63.8 ± 5.5 µM. For the same compound, the IC50 ([3]; Mus musculus, L929) was 50.1 ± 2.6 µM.

In the case of `O=C(/C=C/c1ccccc1)c1ccccc1` [Chalcone, chalcone], the IC50 [1, 5] is reported as < 30 µM, the IC50 [1, 6] is reported as 17.4 ± 1.8 µM and the IC50 ([2]; Mus musculus, Macrophage) is reported as 104 µM. The IC50 ([3]; Mus musculus, L929) was 69.5 ± 1.2 µM.

With `O=c1cc(-c2ccccc2)oc2cc(O)cc(O)c12` [Chrysine, chrysin] the IC50 [1, 5] was 46.8 ± 2.8 µM, the IC50 ([2]; Mus musculus, Macrophage) was 58.2 µM and the IC50 ([3]; Mus musculus, L929) was 76.3 ± 11 µM.

For `O=P(O)(O)C(Cl)(Cl)P(=O)(O)O` [Clodronate, clodronate, reference compound], the “Inhibition of THP-1 cell proliferation (in words)” value [1] was “weaker activity”, the IC50 [1, 5] was > 400 µM and the “Inhibition of mouse bone marrow-derived macrophage proliferation (in words)” value [2] was “comparable strong activity”. For the same compound, the IC50 ([2]; Mus musculus, Macrophage) was 25.7 ± 15.6 µM, the “Inhibition of L929 cell proliferation (in words)” value [3] was “weaker activity” and the IC50 ([3]; Mus musculus, L929) was 336 ± 54.9 µM.

`C[C@H]1[C@H](C)CC[C@]2(C(=O)O)CC[C@]3(C)C(=CC[C@@H]4[C@@]5(C)C[C@@H](O)[C@H](O)C(C)(C)[C@@H]5CC[C@]43C)[C@H]12` [Corosolic acid, corosolic acid] was tested, and the IC50 [1, 5] was < 30 µM, the IC50 [1, 6] was 18.2 ± 0.2 µM and the IC50 ([2]; Mus musculus, Macrophage) was 19.6 ± 0.6 µM. The IC50 ([3]; Mus musculus, L929) was 17.7 ± 0.2 µM.

`COc1cc(/C=C/C(=O)CC(=O)/C=C/c2ccc(O)c(OC)c2)ccc1O` [Curcumin, diferuloylmethane] was tested, and the “Inhibition of THP-1 cell proliferation (in words)” value [1] was “dose-dependent inhibition”, the IC50 [1, 6] was 13 ± 3.2 µM and the IC50 ([1]; means ± range (n = 2) or standard deviation (n > 2), listed as curcumin) was < 30 µM. For the same compound, the IC50 ([2]; Mus musculus, Macrophage) was 22.4 ± 3.6 µM, the IC50 ([3]; Mus musculus, L929) was 22.8 ± 10.8 µM and the “Inhibition of RAW264.7 cell proliferation (in words)” value [4] was “dose-dependent inhibition”.

In the case of `O=c1c(-c2ccc(O)cc2)coc2cc(O)ccc12` [Daidzein, daidzein], the IC50 [1, 5] is reported as > 400 µM, the IC50 ([2]; Mus musculus, Macrophage) is reported as 65.1 ± 33.5 µM and the IC50 ([3]; Mus musculus, L929) is reported as 220 ± 57.9 µM.

`Oc1cc(O)c2c(c1)O[C@H](c1cc(O)c(O)c(O)c1)[C@H](O)C2` [Epigallocatechin, epigallocatechin] showed an IC50 [1, 5] of 37 ± 29.6 µM, an IC50 ([2]; Mus musculus, Macrophage) of 157 ± 19.9 µM and an IC50 ([3]; Mus musculus, L929) of 40.1 ± 3.7 µM.

For `O=C1CC(c2ccccc2)Oc2ccccc21` (stereo not drawn) [Flavanone, flavanone], the IC50 [1, 6] was 55.1 ± 10.9 µM, the IC50 [2] was 225 ± 66.1 µM and the IC50 [3] was 211 ± 29.6 µM.

`O=c1cc(-c2ccccc2)oc2ccccc12` [Flavone, flavone] showed an IC50 [1, 5] of 86.9 ± 4.1 µM, an IC50 ([2]; Mus musculus, Macrophage) of 180 µM and an IC50 ([3]; Mus musculus, L929) of 34.5 ± 3.4 µM.

`O=c1c(-c2ccc(O)cc2)coc2cc(O)cc(O)c12` [Genistein, genistein] was tested, and the IC50 [1, 5] was < 30 µM, the IC50 [1, 6] was 16 ± 6.1 µM and the IC50 ([2]; Mus musculus, Macrophage) was 29 ± 21.5 µM. It also gave an IC50 ([3]; Mus musculus, L929) of 28.2 ± 7.5 µM.

`O=c1c(-c2ccccc2)coc2ccccc12` [Isoflavone, isoflavone] gave an IC50 [1, 5] of 37.6 ± 11.6 µM, an IC50 ([2]; Mus musculus, Macrophage) of 106 ± 7.8 µM and an IC50 ([3]; Mus musculus, L929) of 65.5 ± 3.6 µM.

In the case of `O=c1c(O)c(-c2ccc(O)c(O)c2)oc2cc(O)cc(O)c12` [Quercetin, quercetin], the IC50 [1, 5] is reported as 125 ± 24.1 µM, the IC50 ([2]; Mus musculus, Macrophage) is reported as 126 ± 83.4 µM and the IC50 ([3]; Mus musculus, L929) is reported as 117 ± 32.5 µM.

For `Oc1ccc(/C=C/c2cc(O)cc(O)c2)cc1` [Resveratrol, resveratrol], the IC50 [1, 5] was 64.6 ± 8.5 µM, the IC50 ([2]; Mus musculus, Macrophage) was 77.2 ± 13 µM and the IC50 ([3]; Mus musculus, L929) was 84.8 ± 29.1 µM.

`C[C@H]1[C@H](C)CC[C@]2(C(=O)O)CC[C@]3(C)C(=CC[C@@H]4[C@@]5(C)CC[C@H](O)C(C)(C)[C@@H]5CC[C@]43C)[C@H]12` [Ursolic acid, ursolic acid] was tested, and the IC50 [1, 5] was < 30 µM, the IC50 [1, 6] was 24.6 ± 3.4 µM and the IC50 ([2]; Mus musculus, Macrophage) was 16.3 ± 4.5 µM. The IC50 ([3]; Mus musculus, L929) was 30.7 ± 0.8 µM.

With `C/C1=C\CC(C)(C)/C=C/C(=O)/C(C)=C/CC1` [Zerumbone, zerumbone] the IC50 [1, 5] was < 30 µM, the IC50 [1, 6] was 16 ± 0.5 µM and the IC50 ([2]; Mus musculus, Macrophage) was 32.1 µM. It also gave an IC50 ([3]; Mus musculus, L929) of 30.4 ± 0.1 µM.

From paper PMC4567266 (PLoS ONE, 2015)
